Test results reported in ChEMBL document CHEMBL4414645, “Development of Robust 17(R),18(S)-Epoxyeicosatetraenoic Acid (17,18-EEQ) Analogues as Potential Clinical Antiarrhythmic Agents” (J Med Chem, 2019).

Key:
[1] = target: T1, Epoxide hydrolase 1/Bifunctional epoxide hydrolase 2 (Homo sapiens, UniProt P07099+P34913); assay: Drug metabolism in human liver microsomes assessed as microsomal/soluble epoxide hydrolase mediated formation of [+O + H2O] metabolites at 1 uM after 60 mins in absence of NADPH by LC-MS analysis; format: ADME; conditions: 1 h
T1 sequence (P07099 whole entry): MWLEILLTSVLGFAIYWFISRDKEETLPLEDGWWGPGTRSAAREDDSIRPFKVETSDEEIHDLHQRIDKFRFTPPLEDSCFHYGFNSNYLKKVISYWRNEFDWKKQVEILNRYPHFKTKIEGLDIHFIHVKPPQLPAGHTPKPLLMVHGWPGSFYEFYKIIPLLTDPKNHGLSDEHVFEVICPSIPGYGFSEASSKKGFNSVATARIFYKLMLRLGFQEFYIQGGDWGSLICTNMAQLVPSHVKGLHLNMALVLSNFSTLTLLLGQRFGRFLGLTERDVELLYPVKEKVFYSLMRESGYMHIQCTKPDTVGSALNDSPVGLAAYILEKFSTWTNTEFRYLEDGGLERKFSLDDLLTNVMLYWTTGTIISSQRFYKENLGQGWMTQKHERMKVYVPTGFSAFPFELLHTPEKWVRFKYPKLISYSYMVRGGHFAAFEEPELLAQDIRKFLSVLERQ
T1 sequence (P34913 whole entry): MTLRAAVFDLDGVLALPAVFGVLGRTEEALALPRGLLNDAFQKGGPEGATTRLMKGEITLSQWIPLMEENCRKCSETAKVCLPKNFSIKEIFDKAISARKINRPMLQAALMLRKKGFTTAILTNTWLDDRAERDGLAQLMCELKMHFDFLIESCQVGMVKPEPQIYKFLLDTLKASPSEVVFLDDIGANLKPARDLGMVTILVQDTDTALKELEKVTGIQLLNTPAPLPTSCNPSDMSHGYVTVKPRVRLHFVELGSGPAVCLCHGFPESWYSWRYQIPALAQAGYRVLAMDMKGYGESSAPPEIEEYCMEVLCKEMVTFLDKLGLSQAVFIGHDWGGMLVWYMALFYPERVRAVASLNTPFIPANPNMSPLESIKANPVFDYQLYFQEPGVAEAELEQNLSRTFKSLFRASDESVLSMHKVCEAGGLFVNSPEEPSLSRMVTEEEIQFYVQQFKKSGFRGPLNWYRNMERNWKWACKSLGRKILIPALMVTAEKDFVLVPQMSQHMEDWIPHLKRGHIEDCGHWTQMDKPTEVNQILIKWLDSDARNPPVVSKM

[2] = Stability of compound in HEPES buffer assessed as parent compound remaining at 1 uM after 180 mins by LC-ESI-MS/MS analysis; format: physicochemical; conditions: read-out: Stability
[3] = Protein binding in human plasma at 10 uM incubated for 60 mins by LC-ESI-MS/MS analysis; format: ADME, cell-free; conditions: read-out: PPB (converted)
[4] = n-Octanol-Tris/phosphoric acid buffer buffer distribution coefficient, log D of the compound at pH 7.4 shaken for 30 mins and measured after 24 hrs by UV-HPLC method; format: physicochemical
Cytochrome P450 2D6 = Cytochrome P450 2D6 (Homo sapiens, UniProt P10635); assay: Inhibition of human CYP2D6 by fluorescence method; format: ADME
Sequence of Cytochrome P450 2D6 (P10635 whole entry): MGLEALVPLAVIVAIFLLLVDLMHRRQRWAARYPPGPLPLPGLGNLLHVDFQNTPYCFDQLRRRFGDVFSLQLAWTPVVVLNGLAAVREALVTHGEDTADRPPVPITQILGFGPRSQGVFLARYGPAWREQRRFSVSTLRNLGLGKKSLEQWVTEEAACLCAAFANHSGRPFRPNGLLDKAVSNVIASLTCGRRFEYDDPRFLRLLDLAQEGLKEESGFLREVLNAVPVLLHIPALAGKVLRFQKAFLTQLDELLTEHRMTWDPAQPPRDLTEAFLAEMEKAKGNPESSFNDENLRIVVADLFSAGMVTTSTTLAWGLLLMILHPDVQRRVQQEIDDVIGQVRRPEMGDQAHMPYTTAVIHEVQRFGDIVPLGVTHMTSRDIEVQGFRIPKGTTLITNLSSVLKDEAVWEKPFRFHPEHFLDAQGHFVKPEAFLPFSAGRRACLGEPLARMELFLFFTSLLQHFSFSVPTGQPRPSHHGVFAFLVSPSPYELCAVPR

Cytochrome P450 1A2 = target: T2, Cytochrome P450 1A2 (Homo sapiens, UniProt P05177); assay: Inhibition of human CYP1A2 by fluorescence method; format: ADME
T2 sequence (P05177 whole entry): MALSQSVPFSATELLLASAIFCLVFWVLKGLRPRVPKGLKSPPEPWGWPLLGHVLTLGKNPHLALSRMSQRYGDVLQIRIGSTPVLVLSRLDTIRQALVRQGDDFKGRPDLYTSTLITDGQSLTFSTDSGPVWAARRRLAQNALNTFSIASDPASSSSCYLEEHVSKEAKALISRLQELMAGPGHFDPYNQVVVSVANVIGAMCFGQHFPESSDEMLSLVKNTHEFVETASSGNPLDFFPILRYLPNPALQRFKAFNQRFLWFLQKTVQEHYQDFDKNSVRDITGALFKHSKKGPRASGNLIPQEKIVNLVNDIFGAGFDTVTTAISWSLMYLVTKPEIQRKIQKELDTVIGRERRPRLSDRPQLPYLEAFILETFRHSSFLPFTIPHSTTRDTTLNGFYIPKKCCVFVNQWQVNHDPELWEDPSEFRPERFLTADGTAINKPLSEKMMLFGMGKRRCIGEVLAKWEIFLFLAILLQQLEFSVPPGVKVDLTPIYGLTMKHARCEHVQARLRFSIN

Cytochrome P450 2C9 = Cytochrome P450 2C9 (Homo sapiens, UniProt P11712); assay: Inhibition of human CYP2C9 by fluorescence method; format: ADME
Sequence of Cytochrome P450 2C9 (P11712 whole entry): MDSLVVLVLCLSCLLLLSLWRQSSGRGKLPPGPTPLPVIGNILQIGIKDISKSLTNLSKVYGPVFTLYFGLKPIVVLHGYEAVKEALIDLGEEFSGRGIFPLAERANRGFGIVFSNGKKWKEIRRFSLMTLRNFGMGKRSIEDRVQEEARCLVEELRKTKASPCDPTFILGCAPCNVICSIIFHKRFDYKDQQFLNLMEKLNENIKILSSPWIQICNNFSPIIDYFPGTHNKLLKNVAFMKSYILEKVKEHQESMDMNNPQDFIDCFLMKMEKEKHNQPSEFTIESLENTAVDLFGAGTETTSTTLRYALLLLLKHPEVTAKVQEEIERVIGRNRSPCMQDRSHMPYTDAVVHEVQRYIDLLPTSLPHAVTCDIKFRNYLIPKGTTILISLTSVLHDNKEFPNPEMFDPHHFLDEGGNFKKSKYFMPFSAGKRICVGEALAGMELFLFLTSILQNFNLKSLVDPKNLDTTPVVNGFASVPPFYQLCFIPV

[5] = Half life in human hepatocytes at 1 uM measured up to 180 mins by LC-ESI-MS/MS analysis; format: ADME, cell-based, Hepatocyte
[6] = Tmax in Sprague-Dawley (RjHan:SD) rat at 3 mg/kg, po administered via gavage by LC-MS analysis; format: ADME, organism-based; conditions: in vivo
[7] = Apparent permeability across apical to basolateral side in human Caco2 cells at 10 uM after 15 to 90 mins by LC-ESI-MS/MS analysis; format: ADME, cell-based; conditions: Caco-2
Cytochrome P450 2C19 = Cytochrome P450 2C19 (Homo sapiens, UniProt P33261); assay: Inhibition of human CYP2C19 by fluorescence method; format: ADME
Sequence of Cytochrome P450 2C19 (P33261 whole entry, the tested form may be a part): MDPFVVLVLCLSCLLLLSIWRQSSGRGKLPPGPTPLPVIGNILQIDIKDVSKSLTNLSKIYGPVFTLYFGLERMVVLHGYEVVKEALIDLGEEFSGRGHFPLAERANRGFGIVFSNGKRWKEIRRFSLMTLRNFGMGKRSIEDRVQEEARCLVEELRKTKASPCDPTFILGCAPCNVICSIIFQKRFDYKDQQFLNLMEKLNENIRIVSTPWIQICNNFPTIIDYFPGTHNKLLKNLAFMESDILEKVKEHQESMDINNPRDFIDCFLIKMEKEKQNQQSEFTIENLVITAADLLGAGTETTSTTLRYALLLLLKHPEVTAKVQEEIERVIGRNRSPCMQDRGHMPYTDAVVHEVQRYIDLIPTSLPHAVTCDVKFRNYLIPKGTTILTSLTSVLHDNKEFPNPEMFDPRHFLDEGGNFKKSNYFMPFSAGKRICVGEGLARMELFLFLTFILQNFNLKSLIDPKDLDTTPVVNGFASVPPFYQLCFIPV

[8] = target: T3, Bifunctional epoxide hydrolase 2 (Homo sapiens) (UniProt P34913); assay: Inhibition of N-terminal His-tagged recombinant human soluble epoxide hydrolase (2 to 555 residues) expressed in Sf21 insect cells at 10 uM using as 14,15-EET as substrate after 10 mins by reversed-phase HPLC assay relative to control
T3 sequence (whole entry): T1 sequence (P34913 whole entry)

Cytochrome P450 = assay: Drug metabolism in human liver microsomes assessed as CYP450-mediated formation of [+O] metabolites at 1 uM after 60 mins in absence of NADPH by LC-MS analysis; format: ADME; conditions: 1 h
[9] = Negative chronotropic activity in Wistar rat neonatal cardiomyocytes assessed as changes to basal beating rate after 7 mins by inverted microscopic method; format: functional
[10] = Efflux ratio of apparent permeability across basolateral to apical side over apical to basolateral side in human Caco2 cells at 10 uM after 15 to 90 mins by LC-ESI-MS/MS analysis; format: ADME, cell-based; conditions: Caco-2

| Drug metabolism [1] | remaining at 3 h, 1 µM [2] [%] | fraction unbound at 1 h, 10 µM [3] | logD [4] | IC50 (Cytochrome P450 2D6) [µM] | IC50 (Cytochrome P450 1A2) [µM] | IC50 (Cytochrome P450 2C9) [µM] | half-life at 1 µM [5] [h] | Tmax [6] [h] | Papp A→B at 10 µM [7] [×10⁻⁶ cm/s] | IC50 (Cytochrome P450 2C19) [µM] | inhibition [8] [%] | Drug metabolism (Cytochrome P450) | efflux ratio at 10 µM [10] | Structure (SMILES) | Emax [9] [bpm] |
| --- | --- | --- | --- | --- | --- | --- | --- | --- | --- | --- | --- | --- | --- | --- | --- |
| Metabolite_Notdetected | 104 | 0.0003 | 2.35 | 43.2 | > 50 | 5.4 | 3.02 | 2 | 10 | 0.21 | 1.9 | Metabolite_Notdetected | 0.8 | CNC(=O)C(=O)NCCCC/C=C\CCCCCCCCCc1nnn[nH]1 | 37.1 |
| Metabolite_Notdetected | 102 | 0.0063 | -0.03 | > 50 | > 50 | > 50 | 5.83 | 1.6 | 28.2 | 46.2 | 0.8 | Metabolite_Notdetected | 0.6 | CNC(=O)C(=O)NCCCC/C=C\CCCCCCCOCC(=O)O | 36.7 |
| Metabolite_Notdetected | 85.3 | 0.0009 | 2.01 | > 50 | > 50 | > 50 | 0.874 | 1.6 | 5.3 | > 50 | -8.3 | Metabolite_Notdetected | 0.4 | CNC(=O)C(=O)NCCCC/C=C\CCCCCCCCCC(=O)O | 38.2 |
